Test results taken from paper PMC5007552, “The hVps34‐SGK3 pathway alleviates sustained PI3K/Akt inhibition by stimulating mTORC1 and tumour growth” (The EMBO Journal, 2016).
One block for each molecule: values may come before it.

Assays:
[1] = tested on: NDRG1 phosphorylation in ZR-75-1 cells; assay: Immunoblot of NDRG1 (Thr346) phosphorylation in breast cancer cells; assay type: cell-based, human; conditions: for phosphorylation of PRAS40 (Thr246) and NDRG1 (Thr346): 1 μM, 1 h, ZR-75-1, CAMA-1 (and T47D for PI3K inhibitors); for concentration reducing NDRG1 phosphorylation to basal levels: ZR-75-1 pre-treated with 1 μM MK-2206 for 5 days, hVps34 inhibitor 1 h
Experimental: Cell lysates were subjected to immunoblot analysis with the indicated antibodies. • ZR‐75‐1 cells cultured in serum in the absence of Akt inhibitor were treated for 1 h with the indicated concentrations of VPS34‐IN1. […] One hour prior to lysis, the cells were incubated in the presence or absence of 1 μM VPS34‐IN1. SGK3 was immunoprecipitated from lysates and subjected to in vitro kinase assay by measuring phosphorylation of the Crosstide substrate peptide in the presence of 0.1 mM [γ‐^32P]ATP in a 30 min 30°C reaction (upper panel). Kinase reactions are presented as means ± SD for triplicate reaction. Immunoprecipitates (IP) and lysates were analysed by immunoblot with the indicated antibodies. […] SGK3 was immunoprecipitated from the lysates and subjected to in vitro kinase assay as in (C). Kinase reactions are presented as means ± SD for triplicate reaction. Immunoprecipitates (IP) and lysates (lower panel) were also subjected to immunoblot analysis with the indicated antibodies. • ZR‐75‐1 cells were cultured in the absence or presence of 1 μM MK‐2206 for 5 days. Cells were then treated in the absence or presence of 0.1 μM AZD8055 or 0.1 μM rapamycin for 1 h. SGK3 was immunoprecipitated and subjected to in vitro kinase assay as in (C). Kinase reactions are presented as means ± SD for triplicate reaction. The immunoprecipitates (IP) and lysates were analysed with the indicated antibodies.
One hour prior to lysis, the cells were incubated in the presence of absence of 0.3 μM SAR405. SGK3 was immunoprecipitated from lysates and subjected to in vitro kinase assay by measuring phosphorylation of the Crosstide substrate peptide in the presence of 0.1 mM [γ‐^32P]ATP in a 30 min 30°C reaction (upper panel). Kinase reactions are presented as means ± SD for triplicate reaction. Immunoprecipitates (IP) and lysates were also analysed by immunoblot with the indicated antibodies.
(§1) The result for each kinase is presented as a mean kinase activity of the reaction taken in triplicate relative to a control reaction where the inhibitors were omitted. […] SGK3 was immunoprecipitated from cell lysates and subjected to in vitro kinase assay by measuring phosphorylation of the Crosstide substrate peptide in the presence of 0.1 mM [γ‐^32P]ATP in a 30 min 30°C reaction (upper panel). Kinase reactions are presented as means ± SD for triplicate reaction.
(§2) HEK293 cells were purchased from the American Tissue Culture Collection (ATCC). Cells were cultured in RPMI or DMEM media supplemented with 10% (v/v) foetal bovine serum, 2 mM L‐glutamine, 100 U/ml penicillin and 0.1 mg/ml streptomycin. Inhibitor treatments were carried out as described in figure legends. During 5 days inhibitor treatments, the media was changed after 72‐h intervals. The cells were lysed in buffer containing 50 mM Tris–HCl (pH 7.5), 150 mM NaCl, 1 mM EDTA, 1 mM EGTA, 1 mM sodium orthovanadate, 10 mM sodium glycerophosphate, 10 mM sodium pyrophosphate, 0.27 M sucrose, 0.1% (v/v) 2‐mercaptoethanol, 1 mM benzamidine and 0.1 mM PMSF. Lysates were clarified by centrifugation at 16,000 g for 10 min at 4°C. Protein concentration was calculated using Bradford assay (Thermo Scientific). Immunoblotting and immunoprecipitation were performed using standard procedures. The signal was developed using ECL Western Blotting Detection Kit (Amersham) on Amersham Hyperfilm ECL film (Amersham).

[2] = tested on: ZR-75-1 cells; assay: Immunoblot of Akt/mTORC1 pathway markers (Akt, PRAS40, TSC2, S6K1, Rictor, S6, 4EBP1) in ZR-75-1 cells; assay type: cell-based, human; conditions: for Akt phosphorylation and PRAS40 phosphorylation: ZR-75-1 in serum, hVps34 inhibitor 1 h
Experimental: Kinase reactions are presented as means ± SD for triplicate reaction. Immunoprecipitates (IP) were also analysed by immunoblot with the indicated antibodies. • SGK3 was knocked down in ZR‐75‐1 cells by using shRNA probe B and compared to a control shRNA probe, named sh scramble. After infection, the cells were kept for 2 days in puromycin selection media and then seeded for the experiment. The cells were treated with 1 μM MK‐2206 for 1 h or 5 days. The cell lysates were subjected to immunoblot analysis with the indicated antibodies.
The cell lysates were analysed by immunoblot using the antibody against phosphorylated Akt phosphorylation consensus motif (RxRxxpS/pT).
as §2

[3] = target: T1, SGK3 (Homo sapiens, UniProt Q96BR1); assay: Immunoprecipitated endogenous SGK3 kinase activity (Crosstide) and SGK3 phosphorylation from treated cells; assay type: cell-based; parameters: we immunoprecipitated endogenous SGK3 and assessed protein kinase activity; endogenous in cells; host or cells: ZR-75-1; conditions: for elevated SGK3 kinase activity, T-loop and hydrophobic motif phosphorylation induced by prolonged Class I PI3K or Akt inhibitor treatment: ZR-75-1, 5 days PI3K/Akt inhibitor, then 1 μM VPS34-IN1 or 0.3 μM SAR405 for 1 h; for basal SGK3 activity and phosphorylation: ZR-75-1 in serum, 1 μM VPS34-IN1 or 0.3 μM SAR405; for basal SGK3 activity and phosphorylation / SGK3 hydrophobic motif and T-loop phosphorylation and SGK3 kinase activity: 1 h; for SGK3 hydrophobic motif and T-loop phosphorylation and SGK3 kinase activity: ZR-75-1, 0.1 μM, with or without 5 days 1 μM MK-2206
T1 sequence (Q96BR1 1-496): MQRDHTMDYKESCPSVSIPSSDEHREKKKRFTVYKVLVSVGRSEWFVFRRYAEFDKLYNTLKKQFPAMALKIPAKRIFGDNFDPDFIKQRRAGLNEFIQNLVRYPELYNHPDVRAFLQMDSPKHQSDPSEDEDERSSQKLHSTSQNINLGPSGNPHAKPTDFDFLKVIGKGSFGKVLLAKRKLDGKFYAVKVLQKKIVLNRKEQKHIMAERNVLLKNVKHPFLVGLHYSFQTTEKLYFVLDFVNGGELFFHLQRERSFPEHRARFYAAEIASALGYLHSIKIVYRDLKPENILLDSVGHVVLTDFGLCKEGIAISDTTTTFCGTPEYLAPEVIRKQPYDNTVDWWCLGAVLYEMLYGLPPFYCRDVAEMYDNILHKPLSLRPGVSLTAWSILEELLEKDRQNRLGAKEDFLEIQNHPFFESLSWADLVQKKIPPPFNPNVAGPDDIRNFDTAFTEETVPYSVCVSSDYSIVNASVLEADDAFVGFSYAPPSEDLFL
Experimental: Briefly, SGK3, Akt and S6K1 were immunoprecipitated from 1 mg ZR‐75‐1 cell lysate. Immunoprecipitates were washed in sequence with lysis buffer containing high salt concentration (500 mM NaCl), lysis buffer and Buffer A (50 mM Tris pH 7.5, 0.1 mM EGTA). Kinase activity was assessed by measuring [γ‐^32P]ATP incorporation into Crosstide substrate peptide [[…]]. The reactions were carried in 40 μl total volume containing 0.1 mM [γ‐^32P]ATP (400–1,000 cpm/pmol), 10 mM magnesium acetate and 30 μM Crosstide peptide. Reactions were terminated by adding 10 μl 0.1 M EDTA and spotting 40 μl of the resulting reaction mix on P81 paper, which were immediately immersed into 50 mM orthophosphoric acid. Papers were washed at least five times in 50 mM orthophosphoric acid, rinsed in acetone and air‐dried. Radioactivity was quantified by Cerenkov counting. One unit of enzyme activity was defined as amount of enzyme that catalyses incorporation of 1 nmol of [γ‐^32P]ATP into the substrate over 1 min.

[4] = target: S6K1 (Homo sapiens, UniProt P23443); assay: IC50 on recombinant S6K1 (p70S6K); assay type: biochemical; conditions: Fig 5B / Appendix Fig S1B, recombinant kinase, unit inferred
Chain of S6K1 (P23443 whole entry): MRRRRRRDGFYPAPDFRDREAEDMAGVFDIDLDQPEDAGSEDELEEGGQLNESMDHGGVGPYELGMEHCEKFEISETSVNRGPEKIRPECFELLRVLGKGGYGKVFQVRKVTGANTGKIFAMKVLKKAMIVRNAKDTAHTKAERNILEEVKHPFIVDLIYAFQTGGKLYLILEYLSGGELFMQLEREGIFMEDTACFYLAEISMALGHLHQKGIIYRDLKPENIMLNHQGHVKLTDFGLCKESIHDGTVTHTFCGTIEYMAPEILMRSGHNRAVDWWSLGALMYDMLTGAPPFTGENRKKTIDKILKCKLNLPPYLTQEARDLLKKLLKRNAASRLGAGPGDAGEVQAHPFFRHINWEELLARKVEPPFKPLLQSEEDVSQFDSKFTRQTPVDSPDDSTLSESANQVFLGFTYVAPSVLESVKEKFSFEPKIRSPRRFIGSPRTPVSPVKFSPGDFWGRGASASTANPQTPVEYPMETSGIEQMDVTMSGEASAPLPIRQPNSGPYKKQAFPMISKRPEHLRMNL
Experimental: as §1
(§3) Appendix Figure S1. […] (A) Chemical struc tures of
(§4) Sano/f_i-14g, -14i and -14n compounds. (B) IC50 values of inhibitors on indicated recombinant k inases. […]

[5] = target: MLK1 (Homo sapiens, UniProt P80192); assay: IC50 on recombinant MLK1; assay type: biochemical; conditions: Fig 5B / Appendix Fig S1B, recombinant kinase, unit inferred
Chain of MLK1 (P80192 whole entry, species assumed): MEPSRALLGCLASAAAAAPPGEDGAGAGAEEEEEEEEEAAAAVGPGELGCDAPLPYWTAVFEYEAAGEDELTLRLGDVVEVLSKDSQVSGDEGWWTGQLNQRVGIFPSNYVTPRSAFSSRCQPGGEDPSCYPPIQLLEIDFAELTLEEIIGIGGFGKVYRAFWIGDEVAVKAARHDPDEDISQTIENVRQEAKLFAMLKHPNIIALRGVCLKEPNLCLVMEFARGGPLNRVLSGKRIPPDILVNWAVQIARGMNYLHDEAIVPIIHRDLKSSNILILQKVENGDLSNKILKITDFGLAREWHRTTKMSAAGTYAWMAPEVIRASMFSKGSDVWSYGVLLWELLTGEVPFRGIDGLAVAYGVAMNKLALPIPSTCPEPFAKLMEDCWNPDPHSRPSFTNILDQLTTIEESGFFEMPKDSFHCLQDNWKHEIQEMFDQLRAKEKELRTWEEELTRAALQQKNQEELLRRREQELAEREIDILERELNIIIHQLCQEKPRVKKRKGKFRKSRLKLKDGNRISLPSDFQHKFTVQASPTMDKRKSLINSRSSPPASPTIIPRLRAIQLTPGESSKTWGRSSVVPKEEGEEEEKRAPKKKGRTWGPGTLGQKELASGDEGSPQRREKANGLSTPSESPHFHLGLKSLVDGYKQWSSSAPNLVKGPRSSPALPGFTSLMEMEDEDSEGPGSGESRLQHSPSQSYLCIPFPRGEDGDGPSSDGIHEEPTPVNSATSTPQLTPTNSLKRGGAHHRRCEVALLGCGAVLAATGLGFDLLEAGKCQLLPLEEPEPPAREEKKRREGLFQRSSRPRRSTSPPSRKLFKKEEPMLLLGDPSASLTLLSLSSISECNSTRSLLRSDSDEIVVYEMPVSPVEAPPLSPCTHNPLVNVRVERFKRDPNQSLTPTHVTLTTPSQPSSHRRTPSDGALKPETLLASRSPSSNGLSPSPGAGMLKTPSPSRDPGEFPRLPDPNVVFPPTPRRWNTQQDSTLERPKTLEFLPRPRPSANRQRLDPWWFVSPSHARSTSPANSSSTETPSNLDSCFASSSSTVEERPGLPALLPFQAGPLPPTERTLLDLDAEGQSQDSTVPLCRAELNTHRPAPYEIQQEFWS
Experimental: as §1, §3, §4

[6] = target: PKBa (Homo sapiens, UniProt P31749); assay: IC50 on recombinant PKBa (Akt1); assay type: biochemical; conditions: Fig 5B / Appendix Fig S1B, recombinant kinase, unit inferred
Chain of PKBa (P31749 whole entry): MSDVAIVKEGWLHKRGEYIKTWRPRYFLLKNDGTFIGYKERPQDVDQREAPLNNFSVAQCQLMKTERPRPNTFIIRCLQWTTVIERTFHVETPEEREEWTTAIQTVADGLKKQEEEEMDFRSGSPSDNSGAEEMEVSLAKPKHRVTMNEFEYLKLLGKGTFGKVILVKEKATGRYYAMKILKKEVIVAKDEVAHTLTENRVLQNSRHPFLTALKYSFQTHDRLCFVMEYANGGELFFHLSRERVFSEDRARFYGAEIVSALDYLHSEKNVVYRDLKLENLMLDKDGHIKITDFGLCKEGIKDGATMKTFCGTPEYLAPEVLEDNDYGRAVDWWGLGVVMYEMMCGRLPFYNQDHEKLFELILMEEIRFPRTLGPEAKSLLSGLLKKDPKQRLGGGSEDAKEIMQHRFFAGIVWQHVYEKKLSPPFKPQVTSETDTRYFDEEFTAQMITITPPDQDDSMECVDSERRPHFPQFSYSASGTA
Experimental: as §1, §3, §4

[7] = target: MLK3 (Homo sapiens, UniProt Q16584); assay: IC50 on recombinant MLK3; assay type: biochemical; conditions: Fig 5B / Appendix Fig S1B, recombinant kinase, unit inferred
Chain of MLK3 (Q16584 whole entry, species assumed): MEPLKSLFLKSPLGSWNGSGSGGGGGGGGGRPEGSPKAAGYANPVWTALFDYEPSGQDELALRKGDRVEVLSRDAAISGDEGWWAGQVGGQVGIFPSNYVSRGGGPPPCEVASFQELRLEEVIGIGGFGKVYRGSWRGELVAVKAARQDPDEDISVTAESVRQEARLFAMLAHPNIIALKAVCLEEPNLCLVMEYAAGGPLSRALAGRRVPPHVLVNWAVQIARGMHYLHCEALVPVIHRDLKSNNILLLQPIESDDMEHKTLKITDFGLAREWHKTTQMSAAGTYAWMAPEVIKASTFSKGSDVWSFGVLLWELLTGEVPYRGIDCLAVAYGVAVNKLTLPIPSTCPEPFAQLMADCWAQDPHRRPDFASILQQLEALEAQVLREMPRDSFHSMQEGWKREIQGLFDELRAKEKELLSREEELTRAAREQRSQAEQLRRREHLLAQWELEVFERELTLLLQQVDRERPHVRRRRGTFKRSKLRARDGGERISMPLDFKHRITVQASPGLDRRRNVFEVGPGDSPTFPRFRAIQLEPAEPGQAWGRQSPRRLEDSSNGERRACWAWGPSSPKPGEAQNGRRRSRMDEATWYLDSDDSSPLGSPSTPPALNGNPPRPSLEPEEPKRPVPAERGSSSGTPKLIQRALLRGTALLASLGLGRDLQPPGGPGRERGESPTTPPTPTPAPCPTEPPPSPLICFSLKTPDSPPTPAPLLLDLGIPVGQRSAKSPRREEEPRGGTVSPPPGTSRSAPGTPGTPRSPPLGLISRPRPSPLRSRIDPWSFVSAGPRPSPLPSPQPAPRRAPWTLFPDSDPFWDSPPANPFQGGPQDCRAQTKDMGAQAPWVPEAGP
Experimental: as §1, §3, §4

[8] = target: T1, SGK3; assay: IC50 on recombinant SGK3; assay type: biochemical; conditions: Fig 5B / Appendix Fig S1B, recombinant kinase, unit inferred
Experimental: as §1, §3, §4

[9] = tested on: breast cancer cells that express high levels of SGK1; assay: NDRG1 phosphorylation in breast cancer cells that express high levels of SGK1; assay type: cell-based; conditions: data not shown

Structure (SMILES): CS(=O)(=O)N1CCN(Cc2cc3nc(-c4cccc5[nH]ncc45)nc(N4CCOCC4)c3s2)CC1 [GDC0941]
phosphorylation of PRAS40 (Thr246) and NDRG1 (Thr346) [1]: markedly suppressed

Structure (SMILES): CC(C)(O)CNc1ncc(-c2ccnc(Nc3ccnc(Cl)c3)n2)c(CC2CC2)n1 [VPS34-IN1]
TSC2 or mTORC1 substrate phosphorylation ([2]; ZR-75-1, 1 μM VPS34-IN1 alone, 1 h): did not have an effect | Akt phosphorylation and PRAS40 phosphorylation [2]: neither compound suppressed | concentration reducing NDRG1 phosphorylation to basal levels [1]: 1 µM | elevated SGK3 kinase activity, T-loop and hydrophobic motif phosphorylation induced by prolonged Class I PI3K or Akt inhibitor treatment [3]: suppressed | basal SGK3 activity and phosphorylation [3]: to below control levels

Structure (SMILES): Nc1cc(C(F)(F)F)c(-c2cc(N3CCOCC3)nc(N3CCOCC3)n2)cn1 [BKM120]
phosphorylation of PRAS40 (Thr246) and NDRG1 (Thr346) [1]: markedly suppressed

elevated SGK3 kinase activity, T-loop and hydrophobic motif phosphorylation induced by prolonged Class I PI3K or Akt inhibitor treatment [3]: suppressed | basal SGK3 activity and phosphorylation [3]: to below control levels
Structure (SMILES): C[C@@H]1COCCN1c1cc(=O)n2c(n1)N(Cc1cncc(Cl)c1)[C@H](C(F)(F)F)CC2 [SAR405]
Akt phosphorylation and PRAS40 phosphorylation [2]: neither compound suppressed | concentration reducing NDRG1 phosphorylation to basal levels [1]: 0.3 µM

SGK3 hydrophobic motif and T-loop phosphorylation and SGK3 kinase activity [3]: suppressed
Structure (SMILES): COc1ccc(-c2ccc3c(N4CCOC[C@@H]4C)nc(N4CCOC[C@@H]4C)nc3n2)cc1CO [AZD8055]

SGK3 hydrophobic motif and T-loop phosphorylation and SGK3 kinase activity [3]: had no effect
Structure (SMILES): CO[C@H]1C[C@@H]2CC[C@@H](C)[C@@](O)(O2)C(=O)C(=O)N2CCCC[C@H]2C(=O)O[C@H]([C@H](C)C[C@@H]2CC[C@@H](O)[C@H](OC)C2)CC(=O)[C@H](C)/C=C(\C)[C@@H](O)[C@@H](OC)C(=O)[C@H](C)C[C@H](C)/C=C/C=C/C=C/1C [rapamycin]

IC50 [4]: 0.076 µM | IC50 [5]: 0.169 µM | IC50 [6]: > 10 µM | IC50 [7]: 0.094 µM | IC50 [8]: 0.013 µM
Structure (SMILES): Nc1[nH]nc2nc(-c3ccc(NS(=O)(=O)c4cc(Cl)ccc4F)cc3)cnc12 [14n]

Structure (SMILES): CCc1c(C(=O)NNC(=O)C(O)c2cc(F)cc(F)c2)ccc(O)c1C (stereo not shown) [EMD638683]
dose required to observe marginal reduction in NDRG1 phosphorylation [9]: 100 µM
